Values quoted from earlier work in US8263564B2, “Iron-carbohydrate complex compounds” (Vifor (International) AG, priority 2007, dated 2012).

Tested on: mice
Conditions: intravenously on mice; Berenbaum et al. 1960 cited in Geisser et al. 1992

In the case of O=S(=O)([O-])[O-].[Fe+2] [Fe(II) sulfate], the LD50 is given as 11 mg of Fe/kg of body weight.
